# Measured values from US9422285B2, “Substituted pyrazolo[1,5-A]-pyridine-3-carboxamides and use thereof” (Bayer Pharma Aktiengesellschaft, priority 2014, dated 2016).
# Where a name gives a salt, the structure may show the parent alone.
# Target: T1, recombinant guanylate cyclase reporter cell line (Rattus norvegicus, UniProt P19686+P20595)
# T1 construct: expressed in transfected cells
# T1 sequence (P19686 1-690): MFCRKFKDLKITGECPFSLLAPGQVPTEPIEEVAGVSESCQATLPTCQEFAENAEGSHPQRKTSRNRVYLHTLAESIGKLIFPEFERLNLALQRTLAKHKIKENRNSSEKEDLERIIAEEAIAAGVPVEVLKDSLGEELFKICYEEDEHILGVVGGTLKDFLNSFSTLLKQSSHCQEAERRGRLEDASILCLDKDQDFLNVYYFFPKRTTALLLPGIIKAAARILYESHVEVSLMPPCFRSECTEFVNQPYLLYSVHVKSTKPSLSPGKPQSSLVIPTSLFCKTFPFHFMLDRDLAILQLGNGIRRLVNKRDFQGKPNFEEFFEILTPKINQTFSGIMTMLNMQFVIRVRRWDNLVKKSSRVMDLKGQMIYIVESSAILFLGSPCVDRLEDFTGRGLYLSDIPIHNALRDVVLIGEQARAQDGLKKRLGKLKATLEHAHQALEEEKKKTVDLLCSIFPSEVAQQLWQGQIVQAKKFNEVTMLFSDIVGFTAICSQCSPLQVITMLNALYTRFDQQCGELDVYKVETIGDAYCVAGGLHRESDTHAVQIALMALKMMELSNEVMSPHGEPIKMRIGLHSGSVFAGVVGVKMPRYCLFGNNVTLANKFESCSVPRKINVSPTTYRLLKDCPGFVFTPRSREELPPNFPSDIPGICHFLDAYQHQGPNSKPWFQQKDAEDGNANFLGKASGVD
# T1 sequence (P20595 1-619): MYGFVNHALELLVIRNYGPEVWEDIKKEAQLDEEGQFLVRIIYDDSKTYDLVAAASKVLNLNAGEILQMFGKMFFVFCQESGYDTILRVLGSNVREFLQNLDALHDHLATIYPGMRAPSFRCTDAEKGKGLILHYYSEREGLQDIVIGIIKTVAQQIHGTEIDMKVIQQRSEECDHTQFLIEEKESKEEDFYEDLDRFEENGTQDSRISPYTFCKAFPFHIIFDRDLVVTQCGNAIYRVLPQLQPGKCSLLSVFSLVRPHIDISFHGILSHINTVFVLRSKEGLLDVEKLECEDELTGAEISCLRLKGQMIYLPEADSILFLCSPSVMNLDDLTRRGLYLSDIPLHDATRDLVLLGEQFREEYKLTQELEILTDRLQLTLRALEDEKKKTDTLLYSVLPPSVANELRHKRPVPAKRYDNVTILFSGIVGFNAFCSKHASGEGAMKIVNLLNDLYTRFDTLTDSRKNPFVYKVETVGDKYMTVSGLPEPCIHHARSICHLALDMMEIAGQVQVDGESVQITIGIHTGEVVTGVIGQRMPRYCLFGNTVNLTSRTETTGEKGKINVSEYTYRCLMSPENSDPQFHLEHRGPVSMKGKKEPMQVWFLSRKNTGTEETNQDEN
# Assay: Effect on a recombinant guanylate cyclase reporter cell line (B-2)
# Type: cell-based
# Conditions: in some cases mean values for individual determinations
# Procedure: B-2. Effect on a Recombinant Guanylate Cyclase Reporter Cell Line
# The cellular effect of the inventive compounds is determined using a recombinant guanylate cyclase reporter cell line, as described in F. Wunder et al., Anal. Biochem. 339, 104-112 (2005).
# Representative MEC values (MEC=minimum effective concentration) for the inventive compounds are shown in the table below (in some cases as mean values for individual determinations): […]
row,SMILES,MEC (minimum effective concentration)
1,"Cc1cc(OCc2c(F)ccc(F)c2F)n2nc(C)c(C(=O)NC3CC3c3ccccc3)c2c1 (racemic) [Example 10, rac-2,5-Dimethyl-N-(2-phenylcyclopropyl)-7-[(2,3,6-trifluorobenzyl)oxy]pyrazolo[1,5-a]pyridine-3-carboxamide]",1.0 µM
2,"Cc1cc(OCc2c(F)ccc(F)c2F)n2nc(C)c(C(=O)NCC(C)(N)C3CC3)c2c1 (racemic) [Example 13, rac-N-(2-Amino-2-cyclopropylpropyl)-2,5-dimethyl-7-[(2,3,6-trifluorobenzyl)oxy]pyrazolo[1,5-a]pyridine-3-carboxamide]",1.0 µM
3,"Cc1cc(OCc2c(F)ccc(F)c2F)n2nc(C)c(C(=O)NC(C)c3nc(C(F)(F)F)no3)c2c1 (racemic) [Example 19, rac-2,5-Dimethyl-7-[(2,3,6-trifluorobenzyl)oxy]-N-{1-[3-(trifluoromethyl)-1,2,4-oxadiazol-5-yl]ethyl}pyrazolo[1,5-a]pyridine-3-carboxamide]",0.3 µM
4,"Cc1cc(OCc2c(F)ccc(F)c2F)n2nc(C)c(C(=O)NC(C)COCC(F)(F)F)c2c1 (racemic) [Example 24, rac-2,5-Dimethyl-7-[(2,3,6-trifluorobenzyl)oxy]-N-[1-(2,2,2-trifluoroethoxy)propan-2-yl]pyrazolo[1,5-a]pyridine-3-carboxamide]",0.3 µM
5,"Cc1cc(OCc2c(F)ccc(F)c2F)n2nc(C)c(C(=O)NC(CO)c3ccc(F)cc3)c2c1 (racemic) [Example 30, rac-N-[1-(4-Fluorophenyl)-2-hydroxyethyl]-2,5-dimethyl-7-[(2,3,6-trifluorobenzyl)oxy]pyrazolo[1,5-a]pyridine-3-carboxamide]",0.1 µM
6,"Cc1cc(OCc2c(F)cccc2F)n2nc(C)c(C(=O)NCC(C)(N)CCF)c2c1 (racemic) [Example 48, rac-N-(2-Amino-4-fluoro-2-methylbutyl)-7-[(2,6-difluorobenzyl)oxy]-2,5-dimethylpyrazolo[1,5-a]pyridine-3-carboxamide]",0.3 µM
7,"Cc1cc(OCc2c(F)cccc2F)n2nc(C)c(C(=O)NCC(N)C#N)c2c1 (racemic) [Example 59, rac-N-(2-Amino-2-cyanoethyl)-7-[(2,6-difluorobenzyl)oxy]-2,5-dimethylpyrazolo[1,5-a]pyridine-3-carboxamide]",3.0 µM
8,"Cc1cc(OCc2c(F)cccc2F)n2nc(C)c(C(=O)NCC(N)c3cccc(OCCO)c3)c2c1 (racemic) [Example 72, rac-N-{2-Amino-2-[3-(2-hydroxyethoxy)phenyl]ethyl]-7-[(2,6-difluorobenzyl)oxy]-2,5-dimethylpyrazolo[1,5-a]pyridine-3-carboxamide trifluoroacetate]",10 µM
9,"Cc1cc(OCc2c(F)cccc2F)n2nc(C)c(C(=O)NCC(N)c3csc(C)n3)c2c1 (racemic) [Example 73, rac-N-[2-Amino-2-(2-methyl-1,3-thiazol-4-yl)ethyl]-7-[(2,6-difluorobenzyl)oxy]-2,5-dimethylpyrazolo[1,5-a]pyridine-3-carboxamide trifluoroacetate]",3.0 µM
10,"Cc1cc(OCc2c(F)cccc2F)n2nc(C)c(C(=O)NC3CCOc4ncccc43)c2c1 (racemic) [Example 74, rac-7-[(2,6-Difluorobenzyl)oxy]-N-(3,4-dihydro-2H-pyrano[2,3-b]pyridin-4-yl)-2,5-dimethylpyrazolo[1,5-a]pyridine-3-carboxamide trifluoroacetate]",0.03 µM
11,"Cc1cc(OCc2c(F)cccc2F)n2nc(C)c(C(=O)NC3CCN(C)c4ccccc43)c2c1 (racemic) [Example 75, rac-7-[(2,6-Difluorobenzyl)oxy]-2,5-dimethyl-N-(1-methyl-1,2,3,4-tetrahydroquinolin-4-yl)pyrazolo a]pyridine-3-carboxamide trifluoroacetate]",0.03 µM
12,"Cc1cc(OCc2c(F)cccc2F)n2nc(C)c(C(=O)NC3CC(=O)Nc4ccccc43)c2c1 (racemic) [Example 76, rac-7-[(2,6-Difluorobenzyl)oxy]-2,5-dimethyl-N-(2-oxo-1,2,3,4-tetrahydroquinolin-4-yl)pyrazolo[1,5-a]pyridine-3-carboxamide trifluoroacetate]",0.3 µM
13,"Cc1cc(OCc2c(F)cccc2F)n2nc(C)c(C(=O)NC3CC(=O)N(C)c4ccccc43)c2c1 (racemic) [Example 77, rac-7-[(2,6-Difluorobenzyl)oxy]-2,5-dimethyl-N-(1-methyl-2-oxo-1,2,3,4-tetrahydroquinolin-4-yl)pyrazolo[1,5-a]pyridine-3-carboxamide trifluoroacetate]",0.3 µM
14,"Cc1cc(OCc2c(F)cccc2F)n2nc(C)c(C(=O)NCC(C)(N)CCOCc3ccccc3)c2c1 (racemic) [Example 78, rac-N-[2-Amino-4-(benzyloxy)-2-methylbutyl]-7-[(2,6-difluorobenzyl)oxy]-2,5-dimethylpyrazolo[1,5-a]pyridine-3-carboxamide]",1.0 µM
15,"Cc1cc(OCc2c(F)cccc2F)n2nc(C)c(C(=O)NCC(C)(N)COc3ccc(F)c(F)c3)c2c1 (racemic) [Example 79, rac-N-[2-Amino-3-(3,4-difluorophenoxy)-2-methylpropyl]-7-[(2,6-difluorobenzyl)oxy]-2,5-dimethylpyrazolo[1,5-a]pyridine-3-carboxamide]",3.0 µM
16,"Cc1cc(OCc2c(F)cccc2F)n2nc(C)c(C(=O)NCC3CCc4ccccc4N3)c2c1 (racemic) [Example 82, rac-7-[(2,6-Difluorobenzyl)oxy]-2,5-dimethyl-N-(1,2,3,4-tetrahydroquinolin-2-ylmethyl)pyrazolo[1,5-a]pyridine-3-carboxamide]",1.0 µM
17,"CCOC(=O)c1cccc(C(CN)NC(=O)c2c(C)nn3c(OCc4c(F)cccc4F)cc(C)cc23)n1 (racemic) [Example 83, rac-Ethyl 6-{2-amino-1-[({7-[(2,6-difluorobenzyl)oxy]-2,5-dimethylpyrazolo[1,5-a]pyridin-3-yl}carbonyl)amino]ethyl} pyridine-2-carboxylate trifluoroacetate]",3.0 µM
18,"Cc1cc(OCc2c(F)cccc2F)n2nc(C)c(C(=O)NC3CCOc4ccccc43)c2c1 (racemic) [Example 87, rac-7-[(2,6-Difluorobenzyl)oxy]-N-(3,4-dihydro-2H-chromen-4-yl)-2,5-dimethylpyrazolo[1,5-a]pyridine-3-carboxamide]",0.3 µM
19,"Cc1cc(OCc2c(F)cccc2F)n2nc(C)c(C(=O)NCC3CSCCN3)c2c1 (racemic) [Example 88, rac-7-[(2,6-Difluorobenzyl)oxy]-2,5-dimethyl-N-(thiomorpholin-3-ylmethyl)pyrazolo[1,5-a]pyridine-3-carboxamide]",1.0 µM
20,"Cc1cc(OCc2c(F)cccc2F)n2nc(C)c(C(=O)NC3CCC3(C)N)c2c1 (racemic) [Example 91, rac-N-(2-Amino-2-methylcyclobutyl)-7-[(2,6-difluorobenzyl)oxy]-2,5-dimethylpyrazolo[1,5-a]pyridine-3-carboxamide]",3.0 µM
21,"Cc1cc(OCc2c(F)cccc2F)n2nc(C)c(C(=O)NCC(C)(N)CC(C)C)c2c1 (racemic) [Example 92, rac-N-(2-Amino-2,4-dimethylpentyl)-7-[(2,6-difluorobenzyl)oxy]-2,5-dimethylpyrazolo[1,5-a]pyridine-3-carboxamide]",0.3 µM
22,"Cc1cc(OCc2c(F)cccc2F)n2nc(C)c(C(=O)NCC3CCC(=O)N3)c2c1 (racemic) [Example 95, rac-7-[(2,6-Difluorobenzyl)oxy]-2,5-dimethyl-N-[(5-oxopyrrolidin-2-yl)methyl]pyrazolo[1,5-a]pyridine-3-carboxamide]",10 µM
